# Test results taken from ChEMBL document CHEMBL1201861, “Genomics of Drug Sensitity in Cancer screening data, Wellcome Trust Sanger Institute”.
# Experiments:
# Assay in all cases: cells
# D-247MG = type: functional, cell-based, Homo sapiens; conditions: Homo sapiens, D-247MG
# Description: SANGER: Inhibition of human D-247MG cell growth in a cell viability assay.
# ES1 = type: functional, cell-based, Homo sapiens; conditions: Homo sapiens, ES1;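 note: growth inhibition of ES1 cells, read out with a cell viability assay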
# Description: SANGER: Inhibition of human ES1 cell growth in a cell viability assay.
# EW-1 = type: functional, cell-based, Homo sapiens; conditions: Homo sapiens, EW-1
# Description: SANGER: Inhibition of human EW-1 cell growth in a cell viability assay.
# EW-11 = type: functional, cell-based, Homo sapiens; conditions: Homo sapiens, EW-11;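 note: growth inhibition of human EW-11 cells, measured with a cell viability assay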
# Description: SANGER: Inhibition of human EW-11 cell growth in a cell viability assay.
# FaDu = type: functional, cell-based, Homo sapiens; conditions: Homo sapiens, FaDu;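 note: cell viability readout of growth inhibition in FaDu cells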
# Description: SANGER: Inhibition of human FADU cell growth in a cell viability assay.
# HCC1187 = type: functional, cell-based, Homo sapiens; conditions: Homo sapiens, HCC1187;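 note: growth inhibition of HCC1187 cells, read out with a cell viability assay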
# Description: SANGER: Inhibition of human HCC1187 cell growth in a cell viability assay.
# HCC2218 = type: functional, cell-based; conditions: Homo sapiens;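 note: cell viability assay read-out, with IC50 given as the concentration that inhibits growth of the cell line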
# Description: SANGER: Inhibition of human HCC2218 cell growth in a cell viability assay.
# HCE-4 = type: functional, cell-based, Homo sapiens; conditions: Homo sapiens, HCE-4;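 note: cell viability assay measuring inhibition of growth in the human HCE-4 cell line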
# Description: SANGER: Inhibition of human HCE-4 cell growth in a cell viability assay.
# HN = type: functional, cell-based, Homo sapiens; conditions: Homo sapiens, HN
# Description: SANGER: Inhibition of human HN cell growth in a cell viability assay.
# HuCCT-1 = type: functional, cell-based, Homo sapiens, HuCCT1; conditions: Homo sapiens, HuCCT-1;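 note: growth inhibition of HuCCT-1 cells, read out by a cell viability assay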
# Description: SANGER: Inhibition of human HuCCT1 cell growth in a cell viability assay.
# JVM-2 = type: functional, cell-based; conditions: Homo sapiens;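 note: growth inhibition of JVM-2 cells determined by a cell viability assay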
# Description: SANGER: Inhibition of human JVM-2 cell growth in a cell viability assay.
# LB771-HNC = type: functional, cell-based, Homo sapiens; conditions: Homo sapiens, LB771-HNC;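 note: growth inhibition of LB771-HNC human cells, read out with a cell viability assay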
# Description: SANGER: Inhibition of human LB771-HNC cell growth in a cell viability assay.
# LK-2 = type: functional, cell-based, Homo sapiens; conditions: Homo sapiens, LK-2;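 note: growth inhibition of LK-2 cells, read out with a viability assay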
# Description: SANGER: Inhibition of human LK-2 cell growth in a cell viability assay.
# LS-123 = type: functional, cell-based, Homo sapiens; conditions: Homo sapiens, LS-123
# Description: SANGER: Inhibition of human LS-123 cell growth in a cell viability assay.
# M14 = type: functional, cell-based, Homo sapiens; conditions: Homo sapiens, M14;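 note: growth inhibition of M14 cells, read out with a cell viability assay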
# Description: SANGER: Inhibition of human M14 cell growth in a cell viability assay.
# MDA-MB-415 = type: functional, cell-based; conditions: Homo sapiens
# MKN-28 = type: functional, cell-based, Homo sapiens; conditions: Homo sapiens, MKN-28;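 note: cell viability assay read-out, IC50 reflects suppression of growth of human MKN-28 cells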
# Description: SANGER: Inhibition of human MKN28 cell growth in a cell viability assay.
# MSTO-211H = type: functional, cell-based, Homo sapiens; conditions: Homo sapiens, MSTO-211H
# Description: SANGER: Inhibition of human MSTO-211H cell growth in a cell viability assay.
# NB14 = type: functional, cell-based; conditions: Homo sapiens;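 note: growth inhibition of NB14 cells measured with a cell viability assay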
# Description: SANGER: Inhibition of human NB14 cell growth in a cell viability assay.
# NCI-H2342 = type: functional, cell-based; conditions: Homo sapiens;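 note: growth inhibition of the cancer cell line, determined with a cell viability assay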
# Description: SANGER: Inhibition of human NCI-H2342 cell growth in a cell viability assay.
# NCI-H2347 = type: functional, cell-based, Homo sapiens; conditions: Homo sapiens, NCI-H2347;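 note: growth inhibition of the cell line, read out with a cell viability assay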
# Description: SANGER: Inhibition of human NCI-H2347 cell growth in a cell viability assay.
# NCI-H69 = type: functional, cell-based; conditions: Homo sapiens;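 note: growth inhibition of the cell line, read out with a cell viability assay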
# Description: SANGER: Inhibition of human NCI-H69 cell growth in a cell viability assay.
# NCI-H720 = type: functional, cell-based; conditions: Homo sapiens;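 note: growth inhibition of human NCI-H720 cells determined by a cell viability assay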
# Description: SANGER: Inhibition of human NCI-H720 cell growth in a cell viability assay.
# NY = type: functional, cell-based, Homo sapiens; conditions: Homo sapiens, NY
# Description: SANGER: Inhibition of human NY cell growth in a cell viability assay.
# P12-Ichikawa = type: functional, cell-based; conditions: Homo sapiens
# Panc1005 = type: functional, cell-based, Homo sapiens; conditions: Homo sapiens, Panc1005;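 note: growth inhibition of human PANC-10-05 cells, measured by a cell viability assay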
# Description: SANGER: Inhibition of human PANC-10-05 cell growth in a cell viability assay.
# RO82-W-1 = type: functional, cell-based, Homo sapiens; conditions: Homo sapiens, RO82-W-1;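 note: growth inhibition of human RO82-W-1 cells, measured with a cell viability assay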
# Description: SANGER: Inhibition of human RO82-W-1 cell growth in a cell viability assay.
# RPMI-2650 = type: functional, cell-based, Homo sapiens; conditions: Homo sapiens, RPMI-2650
# Description: SANGER: Inhibition of human RPMI-2650 cell growth in a cell viability assay.
# RPMI-7951 = type: functional, cell-based, Homo sapiens; conditions: Homo sapiens, RPMI-7951
# Description: SANGER: Inhibition of human RPMI-7951 cell growth in a cell viability assay.
# RPMI-8226 = type: functional, cell-based; conditions: Homo sapiens
# Description: SANGER: Inhibition of human RPMI-8226 cell growth in a cell viability assay.
# SCC-4 = type: functional, cell-based, Homo sapiens; conditions: Homo sapiens, SCC-4;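 note: growth inhibition of human SCC-4 cells, read out as cell viability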
# Description: SANGER: Inhibition of human SCC-4 cell growth in a cell viability assay.
# SF-539 = type: functional, cell-based, Homo sapiens; conditions: Homo sapiens, SF-539;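 note: Read-out is a cell viability assay, with IC50 reflecting inhibition of cell growth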
# Description: SANGER: Inhibition of human SF539 cell growth in a cell viability assay.
# SK-N-AS = type: functional, cell-based, Homo sapiens; conditions: Homo sapiens, SK-N-AS;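 note: growth inhibition of human SK-N-AS cells, measured with a cell viability assay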
# Description: SANGER: Inhibition of human SK-N-AS cell growth in a cell viability assay.
# SK-N-FI = type: functional, cell-based, Homo sapiens; conditions: Homo sapiens, SK-N-FI;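 note: cell viability assay measuring growth inhibition of human SK-N-FI cells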
# Description: SANGER: Inhibition of human SK-N-FI cell growth in a cell viability assay.
# SW982 = type: functional, cell-based; conditions: Homo sapiens;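 note: growth inhibition of SW982 cells, read out with a cell viability assay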
# Description: SANGER: Inhibition of human SW982 cell growth in a cell viability assay.
# T84 = type: functional, cell-based, Homo sapiens; conditions: Homo sapiens, T84;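 note: growth inhibition measured with a cell viability readout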
# Description: SANGER: Inhibition of human T84 cell growth in a cell viability assay.
# 8305C = type: functional, cell-based, Homo sapiens; conditions: Homo sapiens, 8305C
# Description: SANGER: Inhibition of human 8305C cell growth in a cell viability assay.
# A101D = type: functional, cell-based, Homo sapiens; conditions: Homo sapiens, A101D;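 note: growth inhibition of the cell line, measured with a viability assay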
# Description: SANGER: Inhibition of human A101D cell growth in a cell viability assay.
# ABC-1 = type: functional, cell-based, Homo sapiens; conditions: Homo sapiens, ABC-1;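 note: growth inhibition of human ABC-1 cells, read out by a cell viability assay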
# Description: SANGER: Inhibition of human ABC-1 cell growth in a cell viability assay.
# AGS = type: functional, cell-based, Homo sapiens; conditions: Homo sapiens, AGS;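 note: growth inhibition of AGS cells, determined with a cell viability assay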
# Description: SANGER: Inhibition of human AGS cell growth in a cell viability assay.
# AU565 = type: functional, cell-based, Homo sapiens; conditions: Homo sapiens, AU565;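 note: cell viability assay measuring growth inhibition of human AU565 cells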
# Description: SANGER: Inhibition of human AU565 cell growth in a cell viability assay.
# BT-474 = type: functional, cell-based, Homo sapiens; conditions: Homo sapiens, BT-474
# Description: SANGER: Inhibition of human BT-474 cell growth in a cell viability assay.
# Becker = type: functional, cell-based, Homo sapiens; conditions: Homo sapiens, Becker;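 note: growth inhibition of Becker cells, read out with a cell viability assay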
# Description: SANGER: Inhibition of human Becker cell growth in a cell viability assay.
# CAL-27 = type: functional, cell-based, Homo sapiens; conditions: Homo sapiens, CAL-27;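 note: Viability-based readout, IC50 reflecting inhibition of CAL-27 cell growth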
# Description: SANGER: Inhibition of human CAL-27 cell growth in a cell viability assay.
# U-266 = type: functional, cell-based; conditions: Homo sapiens
# Description: SANGER: Inhibition of human U-266 cell growth in a cell viability assay.
# UACC-893 = type: functional, cell-based, Homo sapiens; conditions: Homo sapiens, UACC-893
# Description: SANGER: Inhibition of human UACC-893 cell growth in a cell viability assay.
# CAMA-1 = type: functional, cell-based, Homo sapiens; conditions: Homo sapiens, CAMA-1;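 note: growth inhibition of CAMA-1 cells, read out with a cell viability assay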
# Description: SANGER: Inhibition of human CAMA-1 cell growth in a cell viability assay.
# CAPAN-1 = type: functional, cell-based, Homo sapiens; conditions: Homo sapiens, CAPAN-1;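 note: growth suppression of CAPAN-1 cells, read out by a cell viability assay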
# Description: SANGER: Inhibition of human CAPAN-1 cell growth in a cell viability assay.
# CAS-1 = type: functional, cell-based, Homo sapiens; conditions: Homo sapiens, CAS-1;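 note: growth inhibition of CAS-1 cells, measured with a cell viability assay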
# Description: SANGER: Inhibition of human CAS-1 cell growth in a cell viability assay.
# SK-UT-1 = type: functional, cell-based, Homo sapiens; conditions: Homo sapiens, SK-UT-1;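 note: growth inhibition of SK-UT-1 cells, measured by a cell viability assay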
# Description: SANGER: Inhibition of human SK-UT-1 cell growth in a cell viability assay.
# DMS-79 = type: functional, cell-based; conditions: Homo sapiens;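 note: growth inhibition measured with a cell viability assay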
# Description: SANGER: Inhibition of human DMS-79 cell growth in a cell viability assay.
# EW-24 = type: functional, cell-based; conditions: Homo sapiens;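 note: human EW-24 cancer cell line, growth inhibition read out via a cell viability assay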
# Description: SANGER: Inhibition of human EW-24 cell growth in a cell viability assay.
# HOP-62 = type: functional, cell-based, Homo sapiens; conditions: Homo sapiens, HOP-62;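 note: cell growth inhibition determined with a viability assay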
# Description: SANGER: Inhibition of human HOP-62 cell growth in a cell viability assay.
structure (smiles),measurement,setting,value
COc1cc(F)c(F)c(Nc2ccc(I)cc2F)c1NS(=O)(=O)C1(CC(O)CO)CC1 (stereo not given),IC50,D-247MG,> 5000 nM
same,IC50,ES1,> 5000 nM
same,IC50,EW-1,> 5000 nM
same,IC50,EW-11,> 5000 nM
same,IC50,FaDu,> 5000 nM
same,IC50,HCC1187,> 5000 nM
same,IC50,HCC2218,> 5000 nM
same,IC50,HCE-4,> 5000 nM
same,IC50,HN,1120 nM
same,IC50,HuCCT-1,905 nM
same,IC50,JVM-2,> 5000 nM
same,IC50,LB771-HNC,> 5000 nM
same,IC50,LK-2,> 5000 nM
same,IC50,LS-123,2510 nM
same,IC50,M14,28.6 nM
same,IC50,MDA-MB-415,> 5000 nM
same,IC50,MKN-28,> 5000 nM
same,IC50,MSTO-211H,3080 nM
same,IC50,NB14,> 5000 nM
same,IC50,NCI-H2342,> 5000 nM
same,IC50,NCI-H2347,868 nM
same,IC50,NCI-H69,> 5000 nM
same,IC50,NCI-H720,> 5000 nM
same,IC50,NY,> 5000 nM
same,IC50,P12-Ichikawa,1780 nM
same,IC50,Panc1005,> 5000 nM
same,IC50,RO82-W-1,> 5000 nM
same,IC50,RPMI-2650,> 5000 nM
same,IC50,RPMI-7951,761 nM
same,IC50,RPMI-8226,4510 nM
same,IC50,SCC-4,5000 nM
same,IC50,SF-539,2210 nM
same,IC50,SK-N-AS,43.3 nM
same,IC50,SK-N-FI,1880 nM
same,IC50,SW982,436 nM
same,IC50,T84,> 5000 nM
same,IC50,8305C,1290 nM
same,IC50,A101D,51.2 nM
same,IC50,ABC-1,> 5000 nM
same,IC50,AGS,240 nM
same,IC50,AU565,> 5000 nM
same,IC50,BT-474,> 5000 nM
same,IC50,Becker,> 5000 nM
same,IC50,CAL-27,> 5000 nM
same,IC50,U-266,> 5000 nM
same,IC50,UACC-893,> 5000 nM
same,IC50,CAMA-1,> 5000 nM
same,IC50,CAPAN-1,4150 nM
same,IC50,CAS-1,> 5000 nM
O=C1N=C(NCc2cccs2)S/C1=C\c1ccc2ncccc2c1,IC50,D-247MG,> 5000 nM
same,IC50,ES1,> 5000 nM
same,IC50,EW-1,> 5000 nM
same,IC50,EW-11,> 5000 nM
same,IC50,FaDu,> 5000 nM
same,IC50,HCC1187,> 5000 nM
same,IC50,HCC2218,> 5000 nM
same,IC50,HCE-4,> 5000 nM
same,IC50,HN,> 5000 nM
same,IC50,HuCCT-1,> 5000 nM
same,IC50,JVM-2,> 5000 nM
same,IC50,LB771-HNC,> 5000 nM
same,IC50,LK-2,> 5000 nM
same,IC50,LS-123,> 5000 nM
same,IC50,M14,> 5000 nM
same,IC50,MDA-MB-415,> 5000 nM
same,IC50,MKN-28,> 5000 nM
same,IC50,MSTO-211H,> 5000 nM
same,IC50,NB14,> 5000 nM
same,IC50,NCI-H2342,> 5000 nM
same,IC50,NCI-H2347,> 5000 nM
same,IC50,NCI-H69,> 5000 nM
same,IC50,NCI-H720,> 5000 nM
same,IC50,NY,> 5000 nM
same,IC50,P12-Ichikawa,> 5000 nM
same,IC50,Panc1005,> 5000 nM
same,IC50,RO82-W-1,> 5000 nM
same,IC50,RPMI-2650,> 5000 nM
same,IC50,RPMI-7951,> 5000 nM
same,IC50,RPMI-8226,> 5000 nM
same,IC50,SCC-4,> 5000 nM
same,IC50,SF-539,> 5000 nM
same,IC50,SK-N-AS,> 5000 nM
same,IC50,SK-N-FI,> 5000 nM
same,IC50,SK-UT-1,> 5000 nM
same,IC50,SW982,> 5000 nM
same,IC50,T84,> 5000 nM
same,IC50,8305C,> 5000 nM
same,IC50,A101D,> 5000 nM
same,IC50,ABC-1,> 5000 nM
same,IC50,AGS,> 5000 nM
same,IC50,AU565,> 5000 nM
same,IC50,BT-474,> 5000 nM
same,IC50,Becker,> 5000 nM
same,IC50,CAL-27,> 5000 nM
same,IC50,U-266,> 5000 nM
same,IC50,UACC-893,> 5000 nM
same,IC50,CAMA-1,> 5000 nM
same,IC50,CAPAN-1,> 5000 nM
same,IC50,CAS-1,> 5000 nM
COc1ccc(-c2ccc3c(N4CCOC[C@@H]4C)nc(N4CCOC[C@@H]4C)nc3n2)cc1CO [AZD-8055],IC50,D-247MG,> 2000 nM
same,IC50,ES1,555 nM
same,IC50,EW-1,1610 nM
same,IC50,EW-11,1620 nM
same,IC50,FaDu,> 2000 nM
same,IC50,HCC1187,> 2000 nM
same,IC50,HCC2218,207 nM
same,IC50,HCE-4,> 2000 nM
same,IC50,HN,1900 nM
same,IC50,HuCCT-1,> 2000 nM
same,IC50,JVM-2,> 2000 nM
same,IC50,LB771-HNC,> 2000 nM
same,IC50,LK-2,268 nM
same,IC50,LS-123,1250 nM
same,IC50,M14,472 nM
same,IC50,MDA-MB-415,1220 nM
same,IC50,MKN-28,> 2000 nM
same,IC50,MSTO-211H,578 nM
same,IC50,NB14,164 nM
same,IC50,NCI-H2342,> 2000 nM
same,IC50,NCI-H2347,824 nM
same,IC50,NCI-H69,1670 nM
same,IC50,NCI-H720,29.4 nM
same,IC50,NY,> 2000 nM
same,IC50,P12-Ichikawa,1030 nM
same,IC50,Panc1005,> 2000 nM
same,IC50,RO82-W-1,1520 nM
same,IC50,RPMI-2650,1680 nM
same,IC50,RPMI-7951,735 nM
same,IC50,RPMI-8226,286 nM
same,IC50,SCC-4,585 nM
same,IC50,SF-539,1580 nM
same,IC50,SK-N-AS,> 2000 nM
same,IC50,SK-N-FI,1560 nM
same,IC50,SW982,685 nM
same,IC50,T84,> 2000 nM
same,IC50,8305C,708 nM
same,IC50,A101D,490 nM
same,IC50,ABC-1,> 2000 nM
same,IC50,AGS,1090 nM
same,IC50,AU565,> 2000 nM
same,IC50,BT-474,1780 nM
same,IC50,Becker,1520 nM
same,IC50,CAL-27,> 2000 nM
same,IC50,U-266,> 2000 nM
same,IC50,UACC-893,929 nM
same,IC50,CAMA-1,622 nM
same,IC50,CAPAN-1,> 2000 nM
same,IC50,CAS-1,> 2000 nM
CCC1=C[C@@H]2CN(C1)Cc1c([nH]c3ccccc13)[C@@](C(=O)OC)(c1cc3c(cc1OC)N(C)[C@H]1[C@@](O)(C(=O)OC)[C@H](OC(C)=O)[C@]4(CC)C=CCN5CC[C@]31[C@@H]54)C2 [VINORELBINE],IC50,D-247MG,12.6 nM
same,IC50,DMS-79,> 64 nM
same,IC50,ES1,3.78 nM
same,IC50,EW-1,3.93 nM
same,IC50,EW-11,42.7 nM
same,IC50,EW-24,> 64 nM
same,IC50,FaDu,48.5 nM
same,IC50,HCC1187,13.9 nM
same,IC50,HCC2218,57.1 nM
same,IC50,HCE-4,20.8 nM
same,IC50,HN,> 64 nM
same,IC50,HOP-62,1.93 nM
same,IC50,HuCCT-1,2.78 nM
same,IC50,JVM-2,> 64 nM
same,IC50,LB771-HNC,8.59 nM
same,IC50,LK-2,12.5 nM
same,IC50,LS-123,> 64 nM
same,IC50,M14,21.1 nM
same,IC50,MDA-MB-415,24.1 nM
same,IC50,MKN-28,4.77 nM
same,IC50,MSTO-211H,> 64 nM
same,IC50,NCI-H2342,4.78 nM
same,IC50,NCI-H2347,26.1 nM
same,IC50,NCI-H69,6.34 nM
same,IC50,NCI-H720,> 64 nM
same,IC50,NY,8.12 nM
same,IC50,P12-Ichikawa,25.2 nM
same,IC50,Panc1005,3.52 nM
same,IC50,RO82-W-1,> 64 nM
same,IC50,RPMI-2650,10 nM
same,IC50,RPMI-7951,8.82 nM
same,IC50,RPMI-8226,17 nM
same,IC50,SCC-4,2.58 nM
same,IC50,SF-539,14.1 nM
same,IC50,SK-N-AS,> 64 nM
same,IC50,SK-N-FI,> 64 nM
same,IC50,SK-UT-1,2.23 nM
same,IC50,SW982,5.3 nM
same,IC50,T84,53.9 nM
same,IC50,8305C,4.92 nM
same,IC50,A101D,8.67 nM
same,IC50,ABC-1,3.02 nM
same,IC50,AGS,6.46 nM
same,IC50,AU565,8.19 nM
same,IC50,BT-474,28.5 nM
same,IC50,Becker,5.39 nM
same,IC50,CAL-27,32 nM
same,IC50,U-266,17.5 nM
same,IC50,UACC-893,> 64 nM
same,IC50,CAMA-1,45.6 nM
same,IC50,CAPAN-1,14.2 nM
same,IC50,CAS-1,40.1 nM
